Columns and labels:
Assay type in all cases: in vivo
rice = assay: Treatment of soil under submerged condition, pre-emergence (Test 4), injury; details: 30 g ai/a granule, 30 days later
Procedure: (§1) 1/5000-are Wagner pots were filled with soil. Seeds or tubers of barnyardgrass, Monochoria vaginalis, bulrush, Sagittaria pygmaea, Cyperus seroylnus and Eleocharis kuroguwai were seeded or planted under submerged condition. Two pairs of rice seedlings (2-3 leaf stage), which had been reared in advance, were transplanted to each pot and were allowed to germinate in a green house. Each pair consisted of two rice seedlings. One day later (before emergence of weeds), each pot was treated with a granule which had been prepared by processing a predetermined amount of the test composition in accordance with a similar method to the method described in Formulation Example 9. The state of emergence of weeds and the state of injury of rice were observed 30 days later.
(§2) In the table, the degrees of damages of the test plants and the degrees of injury of rice are shown in a similar manner to Example 2.

barnyardgrass [1] = assay: Treatment of soil under submerged condition, pre-emergence (Test 4); details: 30 g ai/a granule, 30 days later
Procedure: as §1, §2

Sagittaria pygmaea [2] = assay: as above; details: 30 g ai/a granule, 30 days later
Procedure: as §1, §2

bulrush [3] = assay: as above; details: 30 g ai/a granule, 30 days later
Procedure: as §1, §2

redroot pigweed = assay: Upland soil application test (Test 2); details: 30 g ai/a, soil spray before emergence, 30 days later
Procedure: (§3) Resin-made 1/2500-are pots were filled with the soil of an upland field. After they were fertilized, soybean, peanut and cotton were seeded and 2-3 cm soil covering was applied. Seeds of redroot pigweed, common lambsquarters, barnyardgrass, green foxtail, large crabgrass, foxtail meadow and johnsongrass had been uniformly mixed with the soil. They were allowed to germinate in a green house. One day later (before emergence of weeds), a wettable powder prepared from a predetermined amount of each test compound in a similar manner to the method described in Formulation Example 1 was diluted with water and then sprayed evenly at an application rate equal to 10 l per are onto the surface of the soil by means of a pressure-operated ULV (ultra low volume) sprayer. Influence to the crops and weeds were observed 30 days later. The results are shown in Table 3, in which the degree of damages of each test plant and the degree of injury to each crop were determined by comparing the air-dried weights of the test plant and crop with those of the corresponding plant and crop in untreated pots and are shown in accordance with the following standard: […]

large crabgrass = assay: Upland soil application test (Test 2); details: 30 g ai/a, soil spray before emergence, 30 days later
Procedure: as §3

barnyardgrass [4] = assay: Upland soil application test (Test 2); details: 30 g ai/a, soil spray before emergence, 30 days later
Procedure: as §3

johnsongrass = assay: Upland soil application test (Test 2); details: 30 g ai/a, soil spray before emergence, 30 days later
Procedure: as §3

common lambsquarters = assay: Upland soil application test (Test 2); details: 30 g ai/a, soil spray before emergence, 30 days later
Procedure: as §3

green foxtail = assay: Upland soil application test (Test 2); details: 30 g ai/a, soil spray before emergence, 30 days later
Procedure: as §3

foxtail meadow = assay: Upland soil application test (Test 2); details: 30 g ai/a, soil spray before emergence, 30 days later
Procedure: as §3

barnyardgrass [5] = assay: Treatment of soil under submerged condition, post-emergence (Test 5); details: 30 g ai/a granule, post-emergence (barnyardgrass two-leaf stage), 30 days later
Procedure: as §1, with “serroylnus” for “seroylnus”, “grow” for “germinate”, “When the barnyardgrass grew to two-leaf stage,” for “One day later (before emergence of weeds),”
(§4) In the table, the degrees of damages of the test plants and the degrees of injury of the rice are shown in a similar manner to Example 2.

Sagittaria pygmaea [6] = assay: as above; details: 30 g ai/a granule, 30 days later
Procedure: as §1, with “serroylnus” for “seroylnus”, “grow” for “germinate”, “When the barnyardgrass grew to two-leaf stage,” for “One day later (before emergence of weeds),”
as §4

bulrush [7] = assay: as above; details: 30 g ai/a granule, 30 days later
Procedure: as §1, with “serroylnus” for “seroylnus”, “grow” for “germinate”, “When the barnyardgrass grew to two-leaf stage,” for “One day later (before emergence of weeds),”
as §4

cotton = assay: Upland foliar application test (Test 3), crop injury; details: 30 g ai/a, foliar spray at 2-3 leaves, 30th day
Procedure: (§5) Resin-made 1/10000-are pots were filled with the soil of an upland field. Redroot pigweed, common lambsquarters, foxtail meadow, johnsongrass, barnyardgrass, green foxtail, large crabgrass, soybean, peanut and cotton were separately seeded and were allowed to germinate in a green house. When each plant grew to the stage of 2-3 leaves, an emulsion formulated from a predetermined amount of each test compound in a similar manner to the method described in Formulation Example 11 was diluted with water to a predetermined dilution rate and then sprayed at an application rate equal to 5 l per are onto the foliage of each plant by means of a pressure-operated ULV (ultra low volume) sprayer. Influence to the crops and weeds were observed on the 30th day after the spray of the herbicides. The results are shown in Table 4 in which the degree of damages of each test plant and the degree of injury to each crop are shown in a similar manner to Test 2.

peanut = assay: as above; details: 30 g ai/a, foliar spray at 2-3 leaves, 30th day
Procedure: as §5

soybean = assay: as above; details: 30 g ai/a, foliar spray at 2-3 leaves, 30th day
Procedure: as §5

## CCCC=CCON=Cc1ccccc1Oc1nc(OC)cc(OC)n1 [compound 25]
rice
  Injury Rice: 1 (71-90 (Slight damages))
Barnyardgrass [1]
  Herbicidal effects Barnyardgrass: 5 (0-5 (Death))
Sagittaria pygmaea [2]
  Herbicidal effects Sagittaria Pygmaea: 4 (6-10 (Severe damages))
Bulrush [3]
  Herbicidal effects Bulrush: 3 (11-40 (Medium damages))
Redroot pigweed
  Herbicidal effects Redroot pigweed: 4 (6-10 (Severe damages))
Large crabgrass
  Herbicidal effects Large crabgrass: 5 (0-5 (Death))
Barnyardgrass [4]
  Herbicidal effects Barnyardgrass: 4 (6-10 (Severe damages))
johnsongrass
  Herbicidal effects Johnsongrass: 5 (0-5 (Death))
Common lambsquarters
  Herbicidal effects Common lambsquarters: 4 (6-10 (Severe damages))
Green foxtail
  Herbicidal effects Green foxtail: 5 (0-5 (Death))
Foxtail meadow
  Herbicidal effects Foxtail meadow: 5 (0-5 (Death))
Barnyardgrass [5]
  Herbicidal effects Barnyardgrass: 4 (6-10 (Severe damages))
Sagittaria pygmaea [6]
  Herbicidal effects Sagittaria Pygmaea: 3 (11-40 (Medium damages))
Bulrush [7]
  Herbicidal effects Bulrush: 5 (0-5 (Death))
cotton
  Injury Cotton: 0 (91-100 (No damages))
peanut
  Injury Peanut: 0 (91-100 (No damages))
soybean
  Injury Soybean: 0 (91-100 (No damages))

## COc1cc(OC)nc(Oc2ccccc2C=NOCCc2ccccc2)n1 [compound 23]
rice
  Injury Rice: 0 (91-100 (No damages))
Barnyardgrass [1]
  Herbicidal effects Barnyardgrass: 5 (0-5 (Death))
Sagittaria pygmaea [2]
  Herbicidal effects Sagittaria Pygmaea: 5 (0-5 (Death))
Bulrush [3]
  Herbicidal effects Bulrush: 4 (6-10 (Severe damages))
Redroot pigweed
  Herbicidal effects Redroot pigweed: 3 (11-40 (Medium damages))
Large crabgrass
  Herbicidal effects Large crabgrass: 3 (11-40 (Medium damages))
Barnyardgrass [4]
  Herbicidal effects Barnyardgrass: 3 (11-40 (Medium damages))
johnsongrass
  Herbicidal effects Johnsongrass: 4 (6-10 (Severe damages))
Common lambsquarters
  Herbicidal effects Common lambsquarters: 4 (6-10 (Severe damages))
Green foxtail
  Herbicidal effects Green foxtail: 3 (11-40 (Medium damages))
Foxtail meadow
  Herbicidal effects Foxtail meadow: 3 (11-40 (Medium damages))
Barnyardgrass [5]
  Herbicidal effects Barnyardgrass: 5 (0-5 (Death))
Sagittaria pygmaea [6]
  Herbicidal effects Sagittaria Pygmaea: 5 (0-5 (Death))
Bulrush [7]
  Herbicidal effects Bulrush: 4 (6-10 (Severe damages))
cotton
  Injury Cotton: 0 (91-100 (No damages))
peanut
  Injury Peanut: 0 (91-100 (No damages))
soybean
  Injury Soybean: 0 (91-100 (No damages))

## C=CC(C)ON=Cc1ccccc1Oc1nc(OC)cc(OC)n1 (centres unmarked) [Compound No. 2]
rice
  Injury Rice: 1 (71-90 (Slight damages))
Barnyardgrass [1]
  Herbicidal effects Barnyardgrass: 5 (0-5 (Death))
Sagittaria pygmaea [2]
  Herbicidal effects Sagittaria Pygmaea: 4 (6-10 (Severe damages))
Bulrush [3]
  Herbicidal effects Bulrush: 4 (6-10 (Severe damages))
Redroot pigweed
  Herbicidal effects Redroot pigweed: 4 (6-10 (Severe damages))
Large crabgrass
  Herbicidal effects Large crabgrass: 5 (0-5 (Death))
Barnyardgrass [4]
  Herbicidal effects Barnyardgrass: 5 (0-5 (Death))
johnsongrass
  Herbicidal effects Johnsongrass: 5 (0-5 (Death))
Common lambsquarters
  Herbicidal effects Common lambsquarters: 4 (6-10 (Severe damages))
Green foxtail
  Herbicidal effects Green foxtail: 5 (0-5 (Death))
Foxtail meadow
  Herbicidal effects Foxtail meadow: 5 (0-5 (Death))
Barnyardgrass [5]
  Herbicidal effects Barnyardgrass: 5 (0-5 (Death))
Sagittaria pygmaea [6]
  Herbicidal effects Sagittaria Pygmaea: 5 (0-5 (Death))
Bulrush [7]
  Herbicidal effects Bulrush: 5 (0-5 (Death))
cotton
  Injury Cotton: 0 (91-100 (No damages))
peanut
  Injury Peanut: 0 (91-100 (No damages))
soybean
  Injury Soybean: 0 (91-100 (No damages))

## COc1cc(OC)nc(Oc2ccccc2C=NOCc2ccc(Cl)c(Cl)c2)n1 [compound 18]
rice
  Injury Rice: 0 (91-100 (No damages))
Barnyardgrass [1]
  Herbicidal effects Barnyardgrass: 4 (6-10 (Severe damages))
Sagittaria pygmaea [2]
  Herbicidal effects Sagittaria Pygmaea: 4 (6-10 (Severe damages))
Bulrush [3]
  Herbicidal effects Bulrush: 2 (41-70 (Small damages))
Redroot pigweed
  Herbicidal effects Redroot pigweed: 3 (11-40 (Medium damages))
Large crabgrass
  Herbicidal effects Large crabgrass: 3 (11-40 (Medium damages))
Barnyardgrass [4]
  Herbicidal effects Barnyardgrass: 4 (6-10 (Severe damages))
johnsongrass
  Herbicidal effects Johnsongrass: 3 (11-40 (Medium damages))
Common lambsquarters
  Herbicidal effects Common lambsquarters: 4 (6-10 (Severe damages))
Green foxtail
  Herbicidal effects Green foxtail: 4 (6-10 (Severe damages))
Foxtail meadow
  Herbicidal effects Foxtail meadow: 3 (11-40 (Medium damages))
Barnyardgrass [5]
  Herbicidal effects Barnyardgrass: 3 (11-40 (Medium damages))
Sagittaria pygmaea [6]
  Herbicidal effects Sagittaria Pygmaea: 4 (6-10 (Severe damages))
Bulrush [7]
  Herbicidal effects Bulrush: 4 (6-10 (Severe damages))
cotton
  Injury Cotton: 0 (91-100 (No damages))
peanut
  Injury Peanut: 0 (91-100 (No damages))
soybean
  Injury Soybean: 0 (91-100 (No damages))

## COc1cc(OC)nc(Oc2ccccc2C=NOCC=Cc2ccc(C(F)(F)F)cc2)n1 [compound 35]
rice
  Injury Rice: 0 (91-100 (No damages))
Barnyardgrass [1]
  Herbicidal effects Barnyardgrass: 4 (6-10 (Severe damages))
Sagittaria pygmaea [2]
  Herbicidal effects Sagittaria Pygmaea: 5 (0-5 (Death))
Bulrush [3]
  Herbicidal effects Bulrush: 3 (11-40 (Medium damages))
Redroot pigweed
  Herbicidal effects Redroot pigweed: 4 (6-10 (Severe damages))
Large crabgrass
  Herbicidal effects Large crabgrass: 5 (0-5 (Death))
Barnyardgrass [4]
  Herbicidal effects Barnyardgrass: 5 (0-5 (Death))
johnsongrass
  Herbicidal effects Johnsongrass: 5 (0-5 (Death))
Common lambsquarters
  Herbicidal effects Common lambsquarters: 5 (0-5 (Death))
Green foxtail
  Herbicidal effects Green foxtail: 5 (0-5 (Death))
Foxtail meadow
  Herbicidal effects Foxtail meadow: 5 (0-5 (Death))
Barnyardgrass [5]
  Herbicidal effects Barnyardgrass: 5 (0-5 (Death))
Sagittaria pygmaea [6]
  Herbicidal effects Sagittaria Pygmaea: 3 (11-40 (Medium damages))
Bulrush [7]
  Herbicidal effects Bulrush: 4 (6-10 (Severe damages))
cotton
  Injury Cotton: 0 (91-100 (No damages))
peanut
  Injury Peanut: 0 (91-100 (No damages))
soybean
  Injury Soybean: 0 (91-100 (No damages))

## COc1cc(OC)nc(Oc2ccccc2C=NOCC=C(C)Cl)n1 [compound 12]
rice
  Injury Rice: 1 (71-90 (Slight damages))
Barnyardgrass [1]
  Herbicidal effects Barnyardgrass: 4 (6-10 (Severe damages))
Sagittaria pygmaea [2]
  Herbicidal effects Sagittaria Pygmaea: 4 (6-10 (Severe damages))
Bulrush [3]
  Herbicidal effects Bulrush: 4 (6-10 (Severe damages))
Redroot pigweed
  Herbicidal effects Redroot pigweed: 3 (11-40 (Medium damages))
Large crabgrass
  Herbicidal effects Large crabgrass: 4 (6-10 (Severe damages))
Barnyardgrass [4]
  Herbicidal effects Barnyardgrass: 4 (6-10 (Severe damages))
johnsongrass
  Herbicidal effects Johnsongrass: 4 (6-10 (Severe damages))
Common lambsquarters
  Herbicidal effects Common lambsquarters: 3 (11-40 (Medium damages))
Green foxtail
  Herbicidal effects Green foxtail: 4 (6-10 (Severe damages))
Foxtail meadow
  Herbicidal effects Foxtail meadow: 4 (6-10 (Severe damages))
Barnyardgrass [5]
  Herbicidal effects Barnyardgrass: 5 (0-5 (Death))
Sagittaria pygmaea [6]
  Herbicidal effects Sagittaria Pygmaea: 3 (11-40 (Medium damages))
Bulrush [7]
  Herbicidal effects Bulrush: 5 (0-5 (Death))
cotton
  Injury Cotton: 0 (91-100 (No damages))
peanut
  Injury Peanut: 0 (91-100 (No damages))
soybean
  Injury Soybean: 0 (91-100 (No damages))

## COc1cc(OC)nc(Oc2ccccc2C=NOCc2cccc3ccccc23)n1 [compound 22]
rice
  Injury Rice: 0 (91-100 (No damages))
Barnyardgrass [1]
  Herbicidal effects Barnyardgrass: 3 (11-40 (Medium damages))
Sagittaria pygmaea [2]
  Herbicidal effects Sagittaria Pygmaea: 3 (11-40 (Medium damages))
Bulrush [3]
  Herbicidal effects Bulrush: 3 (11-40 (Medium damages))
Redroot pigweed
  Herbicidal effects Redroot pigweed: 3 (11-40 (Medium damages))
Large crabgrass
  Herbicidal effects Large crabgrass: 3 (11-40 (Medium damages))
Barnyardgrass [4]
  Herbicidal effects Barnyardgrass: 3 (11-40 (Medium damages))
johnsongrass
  Herbicidal effects Johnsongrass: 4 (6-10 (Severe damages))
Common lambsquarters
  Herbicidal effects Common lambsquarters: 3 (11-40 (Medium damages))
Green foxtail
  Herbicidal effects Green foxtail: 4 (6-10 (Severe damages))
Foxtail meadow
  Herbicidal effects Foxtail meadow: 4 (6-10 (Severe damages))
Barnyardgrass [5]
  Herbicidal effects Barnyardgrass: 5 (0-5 (Death))
Sagittaria pygmaea [6]
  Herbicidal effects Sagittaria Pygmaea: 3 (11-40 (Medium damages))
Bulrush [7]
  Herbicidal effects Bulrush: 4 (6-10 (Severe damages))
cotton
  Injury Cotton: 0 (91-100 (No damages))
peanut
  Injury Peanut: 0 (91-100 (No damages))
soybean
  Injury Soybean: 0 (91-100 (No damages))

Reference: patent US5053070A, “Pyrimidine derivatives, preparation processes thereof, herbicide containing the same, and herbicidal compositions containing the same along with other active ingredient” (Mitsui Toatsu Chemicals, Incorporated, priority 1988, dated 1991)
